Consider nine compounds from patent US10611795B2, “Methods for viral inactivation using eco-friendly detergents” (priority 2013, dated 2020).

The conditions of data set [1]: cited from earlier work; for acute EC50: 30 min Photobacterium phosphoreum (marine light-emitting bacteria); for Biodegradability classification in Closed Bottle and Modified OECD Screening Tests: both Closed Bottle and Modified OECD Screening Tests; for EC50: 3 weeks, Selenastrum capricornutum.
Data set [2] is described as follows: Detergent mixing turbidity analysis (average absorbance 340-360 nm). Particulars: MAb1 HCCF. The format is physicochemical.
Data set [3] relates to Xenotropic Murine Leukemia Virus (XMuLV). Type of data set: cell-based. Particulars: for xMuLV inactivation LRV, Time 2 / xMuLV inactivation LRV, Time 3 / xMuLV inactivation LRV, Time 0.5 / xMuLV inactivation LRV, Time 1 / xMuLV inactivation LRV, Time 6 / xMuLV inactivation, in words: 20° C.; for xMuLV inactivation LRV, Time 2: 2 h; for xMuLV inactivation LRV, Time 3: 3 h; for xMuLV inactivation LRV, Time 0.5: 0.5 h; for xMuLV inactivation LRV, Time 1: 1 h; for xMuLV inactivation LRV, Time 6: 6 h; for xMuLV inactivation, in words: detergent or solvent alone; for XMuLV LRV: rProtein1 CaptoAdhere Pool, Room Temperature.

A short description of data set [4]: Turbidity after detergent exposure. Type of data set: physicochemical. Conditions: MAb3 HCCF and MAb3 MSS pool, three hours.
The nature of data set [5]: EHS evaluation: basic physical and toxicological characteristics from manufacturer and government literature. Conditions: not solid due to the algal and fish data.
Data set [6] has as its system bovine viral diarrhea virus (BVDV). Description: BVDV inactivation, plaque assay with BT indicator cells (LRV). Type of data set: cell-based. Particulars: rProtein 2 HCCF, 0.3% Detergent, 20° C., Run 1, Run 2.
Setting [7] is: MAb1 HCCF, listed as 0.03M caprylate pH 4.5.
[8] abbreviates: MAb1 HCCF, listed as 0.03M caprylate pH 7.6.
[9] abbreviates: MAb1 HCCF, listed as 0.1M caprylate pH 5.0.
Setting [10] is: MAb1 HCCF, listed as 0.1M caprylate pH 7.6.
[11] abbreviates: various (12 species) marine microalgae, 10-12 d.
Setting [12] is: ~2 d, Sphaerechinus granularis, sea urchin embryo-larval test, marine.
Where [13] appears, read: MAb1 HCCF, listed as 1% Polysorbate 20.
The mark [14] stands for this setting: MAb1 HCCF, listed as 2% Polysorbate 20.
The mark [15] stands for this setting: MAb1 Protein A pool, listed as 1% Polysorbate 80.
Setting [16] is: MAb1 Protein A pool, listed as 2% Polysorbate 80.

Where “and” joins values, the source holds several entries; their conditions need not be identical. Equal values may be shown once. Read-outs that look alike come from different tables or passages of the source. Where only a bound is given, the exact number is not on record here.

Consider `CCCCCCOC1OC(CO)C(O)C(O)C1O` (stereo not drawn) [Alkylglucosides C6], for which, in data set [1], the “acute EC50” value is reported as “EC50: C6 = 490 mg/l; C8 =”; the “Biodegradability classification in Closed Bottle and Modified OECD Screening Tests” value was “C10 and C12) are readily”.

Regarding `CCCCCCCCOC1OC(CO)C(O)C(O)C1O` (stereo not drawn) [Alkylglucosides C8], in data set [1], the “acute EC50” value is 11.7 µg/mL; the “Biodegradability classification in Closed Bottle and Modified OECD Screening Tests” value was “C10 and C12) are readily”.

With `CCCCCCCCCCOC1OC(CO)C(O)C(O)C1O` (stereo not drawn) [Alkylglucosides C10], in data set [1], the “acute EC50” value was 7.9 µg/mL; the “Biodegradability classification in Closed Bottle and Modified OECD Screening Tests” value was “C10 and C12) are readily”.

As to `CCCCCCCCCCCCOC1OC(CO)C(O)C(O)C1O` (stereo not drawn) [Alkylglucosides C12], in data set [1], the “acute EC50” value is “C12 = 8.8 mg/l), 30 min”; the “Biodegradability classification in Closed Bottle and Modified OECD Screening Tests” value is “C10 and C12) are readily”.

Take `CCCCCCCC(=O)O` [caprylate, caprylic acid]: the “turbidity during mixing, after filtration and overnight incubation (FIGS. 2, 3), in words” value in data set [2] was “Turbidity increased with the addition and mixing”. Also, the “xMuLV inactivation LRV, Time 2” value in data set [3] (setting [7]) is at least 5.0; in data set [3] (setting [8]), 0.21; in data set [3] (setting [9]), at least 5.1; in data set [3] (setting [10]), at least 6.0. Moreover, the “xMuLV inactivation LRV, Time 3” value in data set [3] (setting [7]) is reported as at least 5.0; in data set [3] (setting [8]), 0.30; in data set [3] (setting [9]), at least 5.1; in data set [3] (setting [10]), at least 6.0. Moreover, the “turbidity, in words” value in data set [4] is reported as “Significant turbidity”.

For `CCCCCCCCCCCC(=O)NCCC[N+](C)(C)CC(=O)[O-]` [lauramidopropyl betaine], the Biodegradability classification result in data set [1] (as stated in the Biodegradability column, no single test named) was “readily biodegradable”.

Take Polysorbate 20: the “acute LC50” value in data set [1] (1 d Artemia sp. (marine)) is given as “acute LC50 1447 mg/l 1 d”. Moreover, in data set [1] (1 d Poecilia reticulata, freshwater), the LC50 entry is reported as “LC50 350 mg/l 1 d Poecilia”. For the same compound, in data set [1], the “Biodegradability according to Roche's inherent biodegradability test (OECD 302)” value is “Poor biodegradability”. For the same compound, in data set [1] (freshwater), the EC50 result is recorded as “EC50 ≤100 mg/l 3 weeks”. The “acute NOEC” value in data set [1] (highest tested concentration, limit test, 48 h Daphnia magna, OECD202) is “acute NOEC 10 mg/l”. For the same compound, in data set [1] (highest tested concentration, limit test, 21 d Daphnia magna, OECD repro), the “chronic NOEC” value was “chronic NOEC 10 mg/l”. The “chronic NOEC” value in data set [1] (setting [11]) is on record as “chronic NOEC 10 mg/l”. In data set [1] (setting [12]), the “chronic NOEC” value was “chronic NOEC 20 mg/l ~2 d,”. Moreover, in data set [5], the “preliminary acute-based freshwater PNEC” value is on record as “freshwater PNEC 0.1 mg/l,”. In addition, in data set [3] (setting [13]), the “xMuLV inactivation LRV, Time 0.5” value is 1.0; the “xMuLV inactivation LRV, Time 1” value was found to be 1.4; the “xMuLV inactivation LRV, Time 3” value worked out at 2.3; the “xMuLV inactivation LRV, Time 6” value is recorded as 4.5. In data set [3] (setting [14]), the “xMuLV inactivation LRV, Time 0.5” value is recorded as 0.6; the “xMuLV inactivation LRV, Time 1” value amounted to 0.7; the “xMuLV inactivation LRV, Time 3” value was determined as 2.2; the “xMuLV inactivation LRV, Time 6” value was 5.6. The “xMuLV inactivation, in words” value in data set [3] (MAb1 HCCF) was “less effective”.

As to Polysorbate 80, the “?NOEC” value in data set [1] (3 weeks Selenastrum capricornutum, printed with question marks) is on record as 100 mg/l? 3 weeks. The “chronic NOEC” value in data set [1] (4 d Gloeocapsa (Cyanobacteria)) was “chronic NOEC 100 mg/l 4 d”; in data set [1] (96 h Tetrahymena pyriformis), “chronic NOEC 250 mg/l 96 h”; in data set [1] (setting [11]), “chronic NOEC 10 mg/l”; in data set [1] (setting [12]), “chronic NOEC 20 mg/l ~2 d,”. Also, the “algal NOEC” value in data set [1] (Chlorella vulgaris 96 h, freshwater) is “algal NOEC 2 mg/l”. Besides, the “Biodegradability according to Roche's inherent biodegradability test (OECD 302)” value in data set [1] is “Poor biodegradability”. Moreover, the “algal EC10 (~NOEC)” value in data set [1] (Scenedesmus quadricauda 96 h, freshwater) is on record as “algal EC10 (~NOEC) 6.99 mg/l”. In addition, the EC50 result in data set [1] (freshwater) is reported as “EC50 ≥100 mg/l, ?NOEC”. The “xMuLV inactivation LRV, Time 1” value in data set [3] (MAb1 HCCF) came to 3.3; in data set [3] (setting [15]), 0.9; in data set [3] (setting [16]) it was 0.7. Further, the “xMuLV inactivation LRV, Time 3” value in data set [3] (MAb1 HCCF) was determined as 5.7; in data set [3] (setting [15]) it was 1.1; in data set [3] (setting [16]), 1.0. In addition, the “xMuLV inactivation, in words” value in data set [3] (MAb1 HCCF) is “less effective”. In addition, the “xMuLV inactivation LRV, Time 0.5” value in data set [3] (setting [15]) amounted to 0.4; in data set [3] (setting [16]), 0.7. In data set [3] (MAb1 Protein A pool), the “xMuLV inactivation LRV, Time 2” value is listed as 1.2. Besides, the “XMuLV LRV” value is on record as “.45” in data set [3] (5 min, Run 1, Run 2); “.57” in data set [3] (10 min, Run 1, Run 2); “.82” in data set [3] (15 min); 2.1 in data set [3] (30 min). Also, in data set [3] (rProtein1 CaptoAdhere pool, room temperature), the “time to effective XMuLV inactivation” value was 1 h.

Triton X-100: the “BVDV log reduction value” is 5.4 and 5.5 in data set [6] (30 min); >5.4 and >5.5 in data set [6] (60 min).
